Assay results as given in patent publication US9718760B2, “Plasminogen activator inhibitor-1 inhibitors and methods of use thereof” (THE REGENTS OF THE UNIVERSITY OF MICHIGAN, priority 2012, dated 2017).
Several values for one entry are separate records, joined by “and”; a condition that tells them apart may be missing. Equal values may be shown once. Read-outs that look alike come from different tables or passages of the source.

Target: recombinant active human PAI-1 (Homo sapiens (Human), UniProt P05121)
Sequence (P05121 24-402): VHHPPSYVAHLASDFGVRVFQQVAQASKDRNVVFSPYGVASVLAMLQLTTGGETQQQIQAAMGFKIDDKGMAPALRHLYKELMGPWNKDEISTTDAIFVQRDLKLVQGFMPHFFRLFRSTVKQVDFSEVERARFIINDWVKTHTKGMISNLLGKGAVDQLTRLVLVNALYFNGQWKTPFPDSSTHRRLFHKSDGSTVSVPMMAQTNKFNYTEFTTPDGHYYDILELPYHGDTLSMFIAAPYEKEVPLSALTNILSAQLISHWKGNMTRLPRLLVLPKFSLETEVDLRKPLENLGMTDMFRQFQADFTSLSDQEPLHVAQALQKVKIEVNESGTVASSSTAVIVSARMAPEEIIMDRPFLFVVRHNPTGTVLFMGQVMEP
Assay: Fluorometric PAI-1/uPA IC50 plate assay at pH 7.4
Format: biochemical
Experimental: To determine the efficacy of various synthesized compounds as PAI-1 inhibitors, a fluorometric plate assay was carried out to measure the half maximal inhibitory concentration (IC50) of these compounds on recombinant active human PAI-1 in vitro. An IC50 is a measure of the effectiveness of a compound in inhibiting biological or biochemical function. Stated another way, IC50 represents the concentration of a drug that is required for 50% inhibition in vitro.
PAI-1 inhibitor compounds were dissolved in DMSO to a final concentration of (10-50 mM), depending upon solubility. Compounds were then diluted in physiologic buffer (40 mM HEPES, 100 mM NaCl, 0.05% Tween-20, pH7.4) containing 10% DMSO and a dilution series (from 0 to 1000 uM depending on solubility) was prepared. 80 μL of compound was added per well to a 96-well black, opaque microplate in duplicate. 10 μL of 20 nM Recombinant active human PAI-1 (Molecular Innovations) in physiologic buffer (40 mM HEPES, 100 mM NaCl, 0.05% Tween-20, 10% DMSO, pH 7.4), or […] physiologic buffer with 10% human plasma, was added and the mixture was agitated for 15 minutes at room temperature. 10 μL of 25 nM uPA (Rheotromb®) was added to each reaction well and the plate was agitated for an additional 30 minutes at room temperature. Tripeptide aminomethylcoumarin Gly-Gly-Arg-AMC (Calbiochem) fluorogenic substrate (100 μL of 100 μM) was then added and residual uPA activity was determined based upon cleavage of this substrate. The rate of AMC release by uPA (fluorescence) was measured at an excitation wavelength of 370 nm and an emission wavelength of 440 nm. Controls included PAI-1 and uPA in the absence of compound and uPA alone. Percent PAI-1 inhibition was calculated using the following formula: [(uPA alone-uPA/PAI-1+ compound)/(uPA alone-PAI-1/uPA)]*100%. The IC50 was calculated using Graphit (IC50 0-100%).

[1] = physiologic buffer (40 mM HEPES, 100 mM NaCl, 0.05% Tween-20, 10% DMSO), read-out: PAI-1/uPA IC50 in buffer
[2] = physiologic buffer with 1.5% BSA (15 mg/mL), read-out: PAI-1/uPA IC50 in 1.5% BSA buffer
[3] = physiologic buffer with 10% human plasma, read-out: PAI-1/uPA IC50 in 10% plasma buffer

| SMILES | IC50 [1] | IC50 [2] | IC50 [3] |
| --- | --- | --- | --- |
| O=C(NCc1ccc(Cl)c(C(F)(F)F)c1)c1ccc(O)c(O)c1 [C348] | 99 µM | 454 µM | 240 µM |
| Cc1ccc(CNC(=O)c2n[nH]c(=O)o2)cc1F [C306] | 1160 µM | 403 µM | 405 µM |
| Cc1cc(Cl)ccc1CNC(=O)C(=O)NO [C300] | 5490 µM |  |  |
| NNC(=O)C(=O)NCc1ccc(Cl)c(C(F)(F)F)c1 [C251] | 68.6 µM and 76 µM | 110 µM and 123 µM | 108 µM |
| COc1ccc(-c2nc(-c3ccc4c(c3)CC(=O)N4)cs2)cc1OC [C227, 5-(2-(3,4-dimethoxyphenyl)thiazol-4-yl)indolin-2-one] | 205 µM |  |  |
| Cc1cc(CNC(=O)C(=O)NN)ccc1F [C262] | 170 µM and 187 µM | 63 µM and 84 µM | 86 µM |
| O=C(CCc1ccc(O)c(O)c1)NCc1cccc(OC(F)(F)F)c1 [C357] | 1370 µM | 1230 µM | 567 µM |
| NNC(=O)C(=O)NCc1cc(C(F)(F)F)cc(C(F)(F)F)c1 [C339] | 282 µM | 247 µM | 303 µM |
| Cc1cc(C(=O)NCc2ccc(Cl)c(C(F)(F)F)c2)no1 [C286] | 580 µM |  |  |
| O=C(CCc1ccc(O)c(O)c1)NCc1cccc(C(F)(F)F)c1 [C344] | 1000 µM | 830 µM | 866 µM |
| COc1cc(CNC(=O)C(=O)NN)cc(OC)c1 [C322] | 4320 µM |  |  |
| Cc1ccc(F)cc1CNC(=O)C(=O)NN [C341] | 900 µM | 1460 µM | 1870 µM |
| NNC(=O)C(=O)NCc1ccc(F)cc1 [C248] | 1190 µM and 1310 µM | 652 µM and 646 µM | 478 µM |
| O=C(NCc1ccc(Br)cc1)c1ccc(O)c(O)c1 [C360] | 164 µM | 1670 µM | 771 µM |
| O=C(Cc1ccc(O)c(O)c1)NCc1ccc(Cl)c(C(F)(F)F)c1 [C347] | 888 µM | 309 µM | 293 µM |
| O=C(/C=C/c1ccc(O)c(O)c1)NCc1ccc(Cl)c(C(F)(F)F)c1 [C346] | 353 µM |  |  |
| NNC(=O)C(=O)NCc1ccc(F)c(C(F)(F)F)c1 [C261] | 102 µM and 103 µM | 68 µM and 86 µM | 69 µM |
| CCOC(=O)C(=O)NCc1cccc(C(F)(F)F)c1 [C267] | 3790 µM |  |  |
| CCCCCCNC(=O)C(=O)NN [C240] | 3770 µM and 3910 µM | 2220 µM and 1970 µM | 1210 µM |
| CCOC(=O)C(=O)NCc1cccc(Cl)c1 [C265] | 4020 µM |  |  |
| CC(C)=NNC(=O)C(=O)NCc1cc(F)cc(F)c1 [C313] | 1200 µM | 532 µM | 490 µM |
| O=C(CCc1ccc(O)c(O)c1)NCc1cc(F)c(F)c(F)c1 [C356] | 1100 µM | 1240 µM | 544 µM |

| SMILES | IC50 [1] | IC50 [2] | IC50 [3] |
| --- | --- | --- | --- |
| NNC(=O)C(=O)NCc1cccc(C(F)(F)F)c1 [C297] | 136 µM | 111 µM | 87 µM |
| NNC(=O)C(=O)NCc1ccc(Cl)cc1F [C307] | 465 µM | 99 µM | 101 µM |
| COC(=O)CCC(=O)NCc1ccc(Cl)c(C(F)(F)F)c1 [C277] | 751 µM and 719 µM | 165 µM and 158 µM | 148 µM and 142 µM |
| NNC(=O)C(=O)NCc1cc(F)c(F)c(F)c1 [C304] | 162 µM | 90 µM | 74 µM |
| CON(C)C(=O)C(=O)NCc1ccc(Cl)c(C(F)(F)F)c1 [C328] | 713 µM | 345 µM | 318 µM |
| O=C(NO)C(=O)NCc1ccc(Cl)c(C(F)(F)F)c1 [C280] | 207 µM and 203 µM | 166 µM and 159 µM | 168 µM |
| Cc1oncc1C(=O)NCc1ccc(Cl)c(C(F)(F)F)c1 [C279] | 539 µM and 593 µM | 545 µM and 504 µM | 680 µM |
| Cc1cc(Cl)ccc1CNC(=O)c1n[nH]c(=O)o1 [C299] | 238 µM | 739 µM | 628 µM |
| Cc1cc(CNC(=O)CCc2ccc(O)c(O)c2)ccc1F [C358] | 1500 µM | 1230 µM | 619 µM |
| COc1cccc(CNC(=O)C(=O)NN)c1 [C295] | 1340 µM | 776 µM | 736 µM |
| COC(=O)CCC(=O)NCc1ccc(F)c(C(F)(F)F)c1 [C276] | 1440 µM | 428 µM | 476 µM |
| NNC(=O)C(=O)NCc1cccc(F)c1 [C264] | 2120 µM | 1180 µM | 1250 µM |
| Cc1cc(Cl)ccc1CNC(=O)C(=O)NN [C282] | 225 µM and 219 µM | 163 µM and 154 µM | 121 µM |
| COC(=O)CCC(=O)NCc1cccc(C(F)(F)F)c1 [C288] | 2910 µM | 1060 µM | 752 µM |
| O=C(NCc1ccc(C(F)(F)F)cc1)c1ccc(O)c(O)c1 [C363] | 199 µM | 751 µM | 309 µM |
| NNC(=O)C(=O)NCc1cccc(Cl)c1Cl [C301] | 173 µM | 128 µM | 106 µM |
| CCOC(=O)C(=O)NCc1ccc(Cl)c(C(F)(F)F)c1 [C256, ethyl 2-((4-chloro-3-(trifluoromethyl)benzyl)amino)-2-oxoacetate] | 1040 µM and 1350 µM | 204 µM and 235 µM | 214 µM |
| O=C(NCc1ccc(Cl)c(C(F)(F)F)c1)C(=O)NNS(=O)(=O)c1ccccc1 [C334] | 189 µM |  |  |
| NNC(=O)C(=O)NCc1cc(F)cc(F)c1 [C340] | 337 µM | 249 µM | 272 µM |
| NNC(=O)CCC(=O)NCc1ccc(Cl)c(C(F)(F)F)c1 [C278] | 640 µM and 642 µM | 118 µM and 130 µM | 142 µM |
| O=C(CCc1ccc(O)c(O)c1)NCc1ccc(Cl)cc1 [C359] | 3370 µM | 2080 µM | 974 µM |
| Cc1ccc(CNC(=O)C(=O)NN)cc1 [C362] | 533 µM | 353 µM | 229 µM |

| SMILES | IC50 [1] | IC50 [2] | IC50 [3] |
| --- | --- | --- | --- |
| NNC(=O)C(=O)NCc1ccc(C(F)(F)F)cc1 [C296] | 112 µM | 69 µM | 64 µM |
| NNC(=O)C(=O)NCc1ccc(Br)cc1 [C260] | 147 µM and 187 µM |  | 525 µM |
| N#Cc1ccc(CNC(=O)C(=O)NN)cc1 [C336] | 5470 µM | 892 µM | 851 µM |
| CCCCCNC(=O)C(=O)NN [C241] | 1930 µM |  |  |
| O=C1Cc2cc(-c3csc(-c4ccc(O)c(O)c4)n3)ccc2N1 [C228] | 14.8 µM |  |  |
| NNC(=O)C(=O)NCc1cccc(OC(F)(F)F)c1 [C268] | 135 µM and 134 µM | 65 µM | 77 µM |
| NNC(=O)C(=O)NCc1ccccc1F [C263] | 2840 µM | 1680 µM | 1360 µM |
| O=C(NCc1ccc(Cl)cc1)c1ccc(O)c(O)c1 [C361] | 232 µM | 2000 µM | 851 µM |
| CCOC(=O)C(=O)NCc1ccc(Br)cc1 [C259] | 2890 µM and 3140 µM | 625 µM and 760 µM | 526 µM |
| NNC(=O)C(=O)NCc1cccc(Cl)c1 [C266] | 568 µM and 549 µM | 126 µM | 219 µM |
| COc1ccc(CCNC(=O)C(=O)NN)cc1OC [C246] | 2560 µM |  |  |
| Cc1ccc(CNC(=O)C(=O)NN)cc1F [C305] | 224 µM | 81 µM | 62 µM |
| COc1ccc(CNC(=O)C(=O)NN)c(OC)c1 [C281] | 2290 µM |  |  |
| NNC(=O)C(=O)NCc1ccc(OC(F)(F)F)cc1 [C255] | 2060 µM and 1780 µM | 221 µM and 292 µM | 279 µM |
| O=C1Cc2cc(S(=O)(=O)NCCc3ccccc3)ccc2N1 [C229, 2-oxo-N-phenethylindoline-5-sulfonamide] | 1290 µM |  |  |
| O=C(CCc1ccc(O)c(O)c1)NCc1ccc(C(F)(F)F)cc1 [C345] | 1470 µM | 673 µM | 539 µM |
| O=C(NCc1ccc(Cl)c(C(F)(F)F)c1)c1n[nH]c(=O)o1 [C285, N-(4-chloro-3-(trifluoromethyl)benzyl)-5-oxo-4,5-dihydro-1,3,4-oxadiazole-2-carboxamide] | 422 µM and 388 µM | 265 µM | 306 µM |
| CONC(=O)C(=O)NCc1ccc(Cl)c(C(F)(F)F)c1 [C320, N-(4-chloro-3-(trifluoromethyl)benzyl)-N′-methoxyoxalamide] | 329 µM | 513 µM | 693 µM |
| O=C(NO)NCc1ccc(Cl)c(C(F)(F)F)c1 [C284, 1-(4-chloro-3-(trifluoromethyl)benzyl)-3-hydroxyurea] | 2480 µM |  |  |
| NNC(=O)CCC(=O)NCc1cccc(C(F)(F)F)c1 [C289] | 2730 µM | 1100 µM | 733 µM |
| O=C(O)C(=O)NCc1ccc(Cl)c(C(F)(F)F)c1 [C309, 2-((4-chloro-3-(trifluoromethyl)benzyl)amino)-2-oxoacetic acid] | 1200 µM |  |  |
